Measurements taken from patent US10588897B2 (priority 2013, dated 2020).
Like-named read-outs stand apart in the source and are kept apart here.

Assays:
[1] = test system: Y. pseudotuberculosis T3SS (YopE secretion); assay type: cell-based, Yersinia pseudotuberculosis
E. coli = conditions: found by Kimura et al.; cited from earlier work
[2] = test system: Escherichia coli type III secretion; conditions: literature; cited from earlier work
[3] = test system: Yersinia pestis type III secretion; conditions: cited from earlier work
[4] = test system: wildtype Y. pseudotuberculosis IP2666; assay type: cell-based, Yersinia pseudotuberculosis
[5] = test system: Y. pseudotuberculosis T3SS; assay type: cell-based, Yersinia pseudotuberculosis

## C/C=C\C=C\[C@@H]1O[C@](O)([C@H](CC)C(=O)NC/C=C/C=C(\C)[C@@H](OC)[C@@H](C)[C@@H]2O[C@H](/C=C/C=C/C=C(\C)C(=O)c3c(O)ccn(C)c3=O)[C@H](O)[C@@H]2O)[C@H](O)[C@H](O)C1(C)C [Aurodox]
[1]; 12.5 μM, highest concentration used
  inhibition of YopE secretion: did not significantly inhibit
E. coli
  concentrations cytotoxic to E. coli: above 12.5 μM
[2]
  in vitro type III secretion by Escherichia coli: reduce

## CC(Oc1ccc(Cl)cc1Cl)C(=O)NCc1ccc2c(c1)OCO2 (stereo not drawn) [MBX 1641]
[3]
  in vitro type III secretion by Yersinia pestis: reduce

## C/C=C(\C)[C@H](O)[C@H](C)/C=C(C)/C=C/C/C(C)=C/Cc1nc(OC)cc(O)c1C [Mer-A 2026B]
[1]
  inhibition of YopE secretion at lower concentrations: dose dependent decrease in inhibition
  reduction of secretion of the T3SS effector YopE: 45%
[4]
  Y. pseudotuberculosis in vitro growth (OD600 compound-treated/OD600 DMSO-treated): do not affect
  Yersinia growth by optical density: did not inhibit
[5]
  YopM translocation into CHO cells: significantly reduced
[5]; 71 µM
  T3SS inhibition (YopM translocation into CHO cells): 75%

## C/C=C(\C)[C@H](O)[C@H](C)/C=C(C)/C=C/C/C(C)=C/Cc1nc(OC)c(OC)c(O)c1C [Piericidin A1]
[1]; 71 μM, 2 hours at 37° C., relative to DMSO
  reduction of secretion of the T3SS effector YopE: 65%
[4]; 143 μM, 23° C., continuous shaking
  Y. pseudotuberculosis in vitro growth (OD600 compound-treated/OD600 DMSO-treated): do not affect
[4]; 143 μM, 37° C., continuous shaking
  Y. pseudotuberculosis in vitro growth (OD600 compound-treated/OD600 DMSO-treated): do not affect
[4]; 26° C. and 37° C., all tested concentrations up to 143 μM
  Yersinia growth by optical density: did not inhibit
[5]; concentrations of 36 μM and greater
  YopM-β-lactamase translocation: significantly diminished
